Results published in patent publication US4505929A, “Sulfur-substituted diphenyl ethers having antiviral activity” (The Dow Chemical Company, priority 1982, dated 1985).
In brackets after ≈: the same amount, converted by molar mass. Like-named read-outs stand apart in the source and are kept apart here.

Key:
rhinovirus type 8 (RV-8) = experiment: Tissue culture antiviral test (HeLa cells), RV-8; format: cell-based; settings: Enterovirus, 48 and 72 hours post-treatment, read-out: Lowest concentration necessary to cause a 50 percent reduction in cytopathic effect, RV-8
Procedure: (§1) Monolayered HeLa cells in 16 millimeter (mm) tissue culture dishes were treated with 1 ml of culture medium (Eagles medium supplemented with fetal calf serum) containing subject compound at an appropriate concentration or containing no compound at all. Culture media such as those described herein are more fully described in standard texts, as for example, Kuchler's Biochemical Methods in Cell Culture and Virology, Dowden, Hutchinson and Ross, Inc., Stroudsberg, PA (1977). Following treatment, cells were challenged with 0.05 ml of rhinovirus type 1A (RV-1A), rhinovirus type 2 (RV-2) or Coxsackie A21 virus (Cox A21) in culture medium. Some of the compounds were also tested against rhinovirus type 5 (RV-5), rhinovirus type 8 (RV-8) or rhinovirus type 64 (RV-64). Cell controls received no viruses.
(§2) ^xx Lowest concentration of the compound (μg/ml) necessary to caus
(§3) a 50 percent reduction in cytopathic effect.

[1] = test system: rhinovirus type 1A (RV-1A); experiment: Tissue culture antiviral test (HeLa cells), RV-1A; format: cell-based; settings: Enterovirus, 48 and 72 hours post-treatment, read-out: Lowest concentration necessary to cause a 50 percent reduction in cytopathic effect, RV-1A
Procedure: as §1, §2, §3

[2] = test system: Coxsackie A21 virus (Cox A21); experiment: Tissue culture antiviral test (HeLa cells), Cox A21; format: cell-based; settings: 48 and 72 hours post-treatment, read-out: Lowest concentration necessary to cause a 50 percent reduction in cytopathic effect, Cox A21
Procedure: as §1, §2, §3

[3] = Cytotoxicity to HeLa cells in tissue culture testing; format: cell-based; settings: human
Procedure: as §1
^x Cytotoxicity figures represent the concentration of the compound,
micrograms/milliliter (μg/ml) found to be toxic to the cell.
means "approximately "; "<<" "considerably less than " and "G.I." means

rhinovirus type 5 (RV-5) = experiment: Tissue culture antiviral test (HeLa cells), RV-5; format: cell-based; settings: Enterovirus, 48 and 72 hours post-treatment, read-out: Lowest concentration necessary to cause a 50 percent reduction in cytopathic effect, RV-5
Procedure: as §1, §2, §3

rhinovirus type 2 (RV-2) = experiment: Tissue culture antiviral test (HeLa cells), RV-2; format: cell-based; settings: Enterovirus, 48 and 72 hours post-treatment, read-out: Lowest concentration necessary to cause a 50 percent reduction in cytopathic effect, RV-2
Procedure: as §1, §2, §3

[4] = test system: rhinovirus type 64 (RV-64); experiment: Tissue culture antiviral test (HeLa cells), RV-64; format: cell-based; settings: Enterovirus, 48 and 72 hours post-treatment, read-out: Lowest concentration necessary to cause a 50 percent reduction in cytopathic effect, RV-64
Procedure: as §1, §2, §3

Picornaviruses = experiment: Antiviral effectiveness against picornaviruses, overall; format: cell-based
Procedure: as §1
Solutions of 4-(4-(methylsulfonyl)phenoxy)-1,2-dichlorobenzene were prepared by dissolving 5 milligrams of the compound in 0.1 ml dimethyl sulfoxide and incubating at 56° C. for at least 15 minutes. This solution was added to 0.9 ml of warmed (56° C.) maintenance medium (49% Eagles, 49% medium 199, 2% fetal calf serum and antibiotics), and the resulting 1.0 ml was then added to 9 ml of warmed (56° C.) maintenance medium. From this solution the final concentrations of 100, 50, 25, or 12.5 μg/ml were made up with maintenance medium. […]

rhinovirus type 60 = experiment: Inhibition of cytopathic effect in Wl-38 cells, type 60; format: cell-based; settings: Enterovirus, WI-38, 25 μg/ml, Wl-38 human embryonic lung cells, read-out: inhibition grade
Procedure: (§4) Solutions of 4-(4-(methylsulfonyl)phenoxy)-1,2-dichlorobenzene were prepared by dissolving 5 milligrams of the compound in 0.1 ml dimethyl sulfoxide and incubating at 56° C. for at least 15 minutes. This solution was added to 0.9 ml of warmed (56° C.) maintenance medium (49% Eagles, 49% medium 199, 2% fetal calf serum and antibiotics), and the resulting 1.0 ml was then added to 9 ml of warmed (56° C.) maintenance medium. From this solution the final concentrations of 100, 50, 25, or 12.5 μg/ml were made up with maintenance medium.
(§5) Triplicate cell culture tubes (Wl-38 human embryonic lung cell culture tubes) were fed with 1 ml of medium containing the compound at specified concentrations and inoculated with 3-300 TCID50 (3-300 times the tissue culture infective dose 50, i.e., the dose required to infect 50% of the cell cultures tested. Simultaneous viral titrations were performed. The tissue cultures were supplemented with fresh medium when necessary (around 3-4 days) until viral titrations were completed.
(§6) The cell culture tubes were examined daily for cytopathic effect. […] Comparisons were made at that time with the percentage of cell sheet destruction in tubes containing virus compound mixtures. Observed differences of 75% or more were graded "+", 74-50% as "±", and less than 50% as "-" inhibition.

rhinovirus type 4 = experiment: Inhibition of cytopathic effect in Wl-38 cells, type 4; format: cell-based; settings: Enterovirus, WI-38, 25 μg/ml, Wl-38 human embryonic lung cells, read-out: inhibition grade
Procedure: as §4, §5, §6

rhinovirus type 74 = experiment: Inhibition of cytopathic effect in Wl-38 cells, type 74; format: cell-based; settings: Enterovirus, WI-38, 25 μg/ml, Wl-38 human embryonic lung cells, read-out: inhibition grade
Procedure: as §4, §5, §6

rhinovirus type 8 = experiment: Inhibition of cytopathic effect in Wl-38 cells, type 8; format: cell-based; settings: Enterovirus, WI-38, 25 μg/ml, Wl-38 human embryonic lung cells, read-out: inhibition grade
Procedure: as §4, §5, §6

Coxsackie A21 virus = experiment: Continuous Oral Feeding test in Coxsackie A21 infected mice; format: in vivo; settings: in diet
Procedure: Some of the compounds were also tested in animals utilizing the following procedure, hereinafter referred to as the "Continuous Oral Feeding" test. Coxsackie A21 virus grown on HeLa cells was administered at a concentration that produces 80 to 100% deaths in mice weighing 10 to 11 grams within 10 days, when the mice are injected (IP) with 0.2 ml of virus preparation. Mice were placed on diets containing test compound dispersed in plain commercially available rodent mash chow at a concentration of 0.05% (weight percent) on day 0. On day 1 the mice were challenged with the virus preparation, 0.2 ml/mouse, (IP). Deaths in both control and experimental groups were recorded for the 10 days and the results analyzed by a chi-square (X^2) test. Chi-square values greater than 3.84 indicate the compound is active (95% confidence level).
^xxx Percent (by weight) of test compound in the diet fed to test

rhinovirus type 81 = experiment: Inhibition of cytopathic effect in Wl-38 cells, type 81; format: cell-based; settings: Enterovirus, WI-38, 25 μg/ml, Wl-38 human embryonic lung cells, read-out: inhibition grade
Procedure: as §4, §5, §6

rhinovirus type 6 = experiment: Inhibition of cytopathic effect in Wl-38 cells, type 6; format: cell-based; settings: Enterovirus, WI-38, 25 μg/ml, Wl-38 human embryonic lung cells, read-out: inhibition grade
Procedure: as §4, §5, §6

rhinovirus type 21 = experiment: Inhibition of cytopathic effect in Wl-38 cells, type 21; format: cell-based; settings: Enterovirus, WI-38, 25 μg/ml, Wl-38 human embryonic lung cells, read-out: inhibition grade
Procedure: as §4, §5, §6

rhinovirus type 56 = experiment: Inhibition of cytopathic effect in Wl-38 cells, type 56; format: cell-based; settings: Enterovirus, WI-38, 25 μg/ml, Wl-38 human embryonic lung cells, read-out: inhibition grade
Procedure: as §4, §5, §6

rhinovirus type 13 = experiment: Inhibition of cytopathic effect in Wl-38 cells, type 13; format: cell-based; settings: Enterovirus, WI-38, 25 μg/ml, Wl-38 human embryonic lung cells, read-out: inhibition grade
Procedure: as §4, §5, §6

Cox A21 = experiment: Single Oral Dose test in Cox A21 infected mice; format: in vivo, Swiss male mice
Procedure: In addition, some of the compounds were tested in animals utilizing the following procedure, hereinafter referred to as the "Single Oral Dose" test. Swiss male mice, 10-12 grams in weight were challenged intraperitoneally (IP) with 0.2 ml of a normally lethal dose, i.e. a virus dose sufficient to cause .congruent.80-100% mortality in infected animals within 10 days of challenge of Cox A21, in phosphate buffered saline containing 1% heat inactivated fetal calf serum. Three hours later mice were treated orally (P.O.) with 0.2 ml of compound suspended in 0.5% hydroxypropyl methylcellulose (Methocel) or with 0.2 ml of 0.5% Methocel containing no compound. […] Mice were observed daily for 7-10 days post-challenge and deaths recorded. A modified Mantel-Haenzel combined chi-square procedure was used to determine significant difference between virus control and treated groups. Chi-square values greater than 3.84 are considered significant (95% confidence level) in this test.

[5] = Acute oral toxicity in beagle dogs; settings: dog, in vivo
rhinovirus type 10 = experiment: Inhibition of cytopathic effect in Wl-38 cells, type 10; format: cell-based; settings: Enterovirus, WI-38, 25 μg/ml, Wl-38 human embryonic lung cells, read-out: inhibition grade
Procedure: as §4, §5, §6

rhinovirus type 68 = experiment: Inhibition of cytopathic effect in Wl-38 cells, type 68; format: cell-based; settings: Enterovirus, WI-38, 25 μg/ml, Wl-38 human embryonic lung cells, read-out: inhibition grade
Procedure: as §4, §5, §6

rhinovirus type 17 = experiment: Inhibition of cytopathic effect in Wl-38 cells, type 17; format: cell-based; settings: Enterovirus, WI-38, 25 μg/ml, Wl-38 human embryonic lung cells, read-out: inhibition grade
Procedure: as §4, §5, §6

rhinovirus type 29 = experiment: Inhibition of cytopathic effect in Wl-38 cells, type 29; format: cell-based; settings: Enterovirus, WI-38, 25 μg/ml, Wl-38 human embryonic lung cells, read-out: inhibition grade
Procedure: as §4, §5, §6

rhinovirus type 19 = experiment: Inhibition of cytopathic effect in Wl-38 cells, type 19; format: cell-based; settings: Enterovirus, WI-38, 25 μg/ml, Wl-38 human embryonic lung cells, read-out: inhibition grade
Procedure: as §4, §5, §6

rhinovirus type 64 = experiment: Inhibition of cytopathic effect in Wl-38 cells, type 64; format: cell-based; settings: Enterovirus, WI-38, 25 μg/ml, Wl-38 human embryonic lung cells, read-out: inhibition grade
Procedure: as §4, §5, §6

rhinovirus type 59 = experiment: Inhibition of cytopathic effect in Wl-38 cells, type 59; format: cell-based; settings: Enterovirus, WI-38, 25 μg/ml, Wl-38 human embryonic lung cells, read-out: inhibition grade
Procedure: as §4, §5, §6

rhinovirus type 58 = experiment: Inhibition of cytopathic effect in Wl-38 cells, type 58; format: cell-based; settings: Enterovirus, WI-38, 25 μg/ml, Wl-38 human embryonic lung cells, read-out: inhibition grade
Procedure: as §4, §5, §6

rhinovirus type 75 = experiment: Inhibition of cytopathic effect in Wl-38 cells, type 75; format: cell-based; settings: Enterovirus, WI-38, 25 μg/ml, Wl-38 human embryonic lung cells, read-out: inhibition grade
Procedure: as §4, §5, §6

rhinovirus type 39 = experiment: Inhibition of cytopathic effect in Wl-38 cells, type 39; format: cell-based; settings: Enterovirus, WI-38, 25 μg/ml, Wl-38 human embryonic lung cells, read-out: inhibition grade
Procedure: as §4, §5, §6

[6] = test system: Hank's (untyped) rhinovirus; experiment: Inhibition of cytopathic effect in Wl-38 cells, Hank's (untyped); format: cell-based; settings: Enterovirus, WI-38, 25 μg/ml, Wl-38 human embryonic lung cells, read-out: inhibition grade
Procedure: as §4, §5, §6

Acute toxicity in rats = settings: rat, in vivo

SMILES: CS(=O)(=O)c1ccc(Oc2ccc(OCC#N)cc2)cc1 [Example 23, (4-(4-(Methylsulfonyl)phenoxy)phenoxy)acetonitrile]
- EC50 (rhinovirus type 8 (RV-8)): 5 µg/mL (≈ 16.5 µM)
- EC50 [1]: 2.5 µg/mL (≈ 8.24 µM)
- EC50 [2]: 2.5 µg/mL (≈ 8.24 µM)
- MCC ([3]; concentration found to be toxic to the cell, observed at 48 and 72 hours, read-out: Cytotoxicity): 10 µg/mL
- EC50 (rhinovirus type 5 (RV-5)): 5 µg/mL (≈ 16.5 µM)
- EC50 (rhinovirus type 2 (RV-2)): 5 µg/mL (≈ 16.5 µM)
- EC50 [4]: 10 µg/mL (≈ 33 µM)

SMILES: CS(=O)(=O)c1ccc(Oc2ccc(Cl)c(Cl)c2)cc1 [Example 1, 4-(4-(Methylsulfonyl)phenoxy)-1,2-dichlorobenzene]
- effectiveness against Picornaviruses (Picornaviruses): particularly effective against Picornaviruses
- inhibition at 25 µg/mL (rhinovirus type 60): ≥ 75%
- inhibition at 25 µg/mL (rhinovirus type 4): ≥ 75%
- inhibition at 25 µg/mL (rhinovirus type 74): ≥ 75%
- inhibition at 25 µg/mL (rhinovirus type 8): < 50%
- EC50 (rhinovirus type 8 (RV-8)): ~50 µg/mL (≈ 158 µM)
- antiviral activity in Continuous Oral Feeding test (Coxsackie A21 virus): exhibited antiviral activity
- inhibition at 25 µg/mL (rhinovirus type 81): ≥ 75%
- inhibition at 25 µg/mL (rhinovirus type 6): ≥ 75%
- inhibition at 25 µg/mL (rhinovirus type 21): ≥ 75%
- inhibition at 25 µg/mL (rhinovirus type 56): ≥ 75%
- EC50 [1]: 0.25 µg/mL (≈ 0.788 µM)
- inhibition at 25 µg/mL (rhinovirus type 13): ≥ 75%
- EC50 [2]: 2.5 µg/mL (≈ 7.88 µM)
- antiviral activity in Single Oral Dose test (Cox A21): exhibited antiviral activity
- MCC ([3]; G.I. = growth inhibition: at the concentration shown the compound inhibited growth of the tissue culture, read-out: Cytotoxicity (G.I.)): 50 to 100 µg/mL
- LD50 [5]: > 2000 mg/kg
- inhibition at 25 µg/mL (rhinovirus type 10): ≥ 75%
- inhibition at 25 µg/mL (rhinovirus type 68): 50 to 74%
- EC50 (rhinovirus type 2 (RV-2)): 0.25 µg/mL (≈ 0.788 µM)
- inhibition at 25 µg/mL (rhinovirus type 17): ≥ 75%
- inhibition at 25 µg/mL (rhinovirus type 29): ≥ 75%
- inhibition at 25 µg/mL (rhinovirus type 19): ≥ 75%
- inhibition at 25 µg/mL (rhinovirus type 64): ≥ 75%
- inhibition at 25 µg/mL (rhinovirus type 59): ≥ 75%
- EC50 [4]: 0.25 µg/mL (≈ 0.788 µM)
- inhibition at 25 µg/mL (rhinovirus type 58): ≥ 75%
- inhibition at 25 µg/mL (rhinovirus type 75): < 50%
- inhibition at 25 µg/mL (rhinovirus type 39): ≥ 75%
- inhibition at 25 µg/mL [6]: ≥ 75%
- LD50 (Acute toxicity in rats; ip, intraperitoneal, read-out: acute toxicity, intraperitoneal administration): > 1000 mg/kg
- LD50 (Acute toxicity in rats; oral, read-out: acute oral toxicity): > 2000 mg/kg
